Reference: ChEMBL document CHEMBL4819087, “Identification and optimization of 3-bromo-N'-(4-hydroxybenzylidene)-4-methylbenzohydrazide derivatives as mTOR inhibitors that induce autophagic cell death and apoptosis in triple-negative breast cancer” (Eur J Med Chem, 2021)
pIC50: −log10 of the molar value. Active and inactive are the calls of the source. The rule behind the calls is not given here.

Key:
MDA-MB-468 [1] = assay: Induction of apoptosis in human MDA-MB-468 cells assessed as late apoptic cells at 10 uM after 24 hrs by AnnexinV-FITC/PI staining based flow cytometry analysis (reference value: 0.87 to 2.84%); type: functional
MDA-MB-231 [2] = assay: Induction of apoptosis in human MDA-MB-231 cells assessed as late apoptotic cells at 2.5 uM after 24 hrs by AnnexinV-FITC/PI staining based flow cytometry analysis (reference value: 0.84%); type: functional
[3] = target: T1, Serine/threonine-protein kinase mTOR (Homo sapiens, UniProt P42345); assay: Inhibition of mTOR in human MDA-MB-231 cells assessed as reduction in total 4EBP1 protein level at 0.5 to 2 uM after 24 hrs by Western blot analysis; type: cell-based; settings: dose 0.5-2 µM
A549 = assay: cells; settings: Homo sapiens, A549, 24 h
Description: Antiproliferative activity against human A549 cells assessed as reduction in cell viability incubated for 24 hrs by MTT assay

MDA-MB-468 [4] = assay: Induction of apoptosis in human MDA-MB-468 cells assessed as increase in Bax level at 2.5 to 10 uM incubated for 24 hrs by western blot analysis; type: functional, cell-based; settings: dose 2.5-10 µM
MDA-MB-468 [5] = assay: Induction of apoptosis in human MDA-MB-468 cells assessed as necrotic cells at 10 uM after 24 hrs by AnnexinV-FITC/PI staining based flow cytometry analysis (reference value: 1.56%); type: functional
MDA-MB-468 [6] = assay: Induction of apoptosis in human MDA-MB-468 cells assessed as viable cells at 10 uM pretreated with autophagy inhibitor, 3-methyladenine for 1 hr followed by incubation with compound and measured after 24 hrs by Annexin V-FITC/propidium iodide staining based flow cytometry (reference value: 93.6%); type: functional; settings: read-out: Activity
MDA-MB-468 [7] = assay: Antiproliferative activity against human MDA-MB-468 cells measured after 24 hrs by Hoechst 33258 dye based fluorescence microscopic analysis; type: functional, cell-based; settings: dose 2.5-10 µM
[8] = target: T1, Serine/threonine-protein kinase mTOR; assay: Inhibition of mTOR in human MDA-MB-231 cells assessed as reduction in p70S6K(Thr389) protein level at 0.5 to 2 uM after 24 hrs by Western blot analysis; type: cell-based; settings: dose 0.5-2 µM
MDA-MB-468 [9] = assay: Induction of autophagy in human MDA-MB-468 cells assessed as increase in Beclin-1 protein level at 2.5 to 10 uM incubated for 24 hrs by Western blot analysis; type: functional, cell-based; settings: dose 2.5-10 µM
MDA-MB-231 [10] = assay: Induction of apoptosis in human MDA-MB-231 cells assessed as increase in Bax level at 2.5 to 10 uM incubated for 24 hrs by western blot analysis; type: functional, cell-based; settings: dose 2.5-10 µM
MDA-MB-231 [11] = assay: Antiproliferative activity against human MDA-MB-231 cells assessed as inhibition of cell viability at 5 uM preincubated with autophagy inhibitor, 3-methyladenine for 1 hr followed by compound addition and measured after 24 hrs by MTT assay; type: functional, cell-based
MDA-MB-231 [12] = assay: Inhibition of colony formation in human MDA-MB-231 cells at 10 uM incubated for 14 days in presence of autophagy inhibitor, 3-methyladenine by crystal violet staining based analysis; type: functional, cell-based; settings: time 14.0 day
MDA-MB-231 [13] = assay: Induction of apoptosis in human MDA-MB-231 cells assessed as necrotic cells at 10 uM after 24 hrs by AnnexinV-FITC/PI staining based flow cytometry analysis (reference value: 0.083%); type: functional
MDA-MB-468 [14] = assay: Induction of autophagy in human MDA-MB-468 cells assessed as increase in LC3-II protein level at 2.5 to 10 uM incubated for 24 hrs by Western blot analysis; type: functional, cell-based; settings: dose 2.5-10 µM
MDA-MB-231 [15] = assay: Induction of apoptosis in human MDA-MB-231 cells assessed as early apoptotic cells at 10 uM after 24 hrs by AnnexinV-FITC/PI staining based flow cytometry analysis (reference value: 2.43 to 2.63%); type: functional
MDA-MB-468 [16] = assay: Induction of apoptosis in human MDA-MB-468 cells assessed as increase in cleaved caspase 3 level at 2.5 to 10 uM incubated for 24 hrs by western blot analysis; type: functional, cell-based; settings: dose 2.5-10 µM
[17] = target: T1, Serine/threonine-protein kinase mTOR; assay: Inhibition of mTOR in human MDA-MB-468 cells assessed as reduction in p-AKT(Ser473) protein level at 0.5 to 2 uM after 24 hrs by Western blot analysis; type: cell-based; settings: dose 0.5-2 µM
MDA-MB-468 [18] = assay: Induction of apoptosis in human MDA-MB-468 cells assessed as late apoptotic cells at 10 uM pretreated for 1 hr with autophagy inhibitor, 3-methyladenine followed by incubation with compound and measured after 24 hrs by Annexin V-FITC/propidium iodide staining based flow cytometry (reference value: 1.94%); type: functional; set-up: scale not given: the % may be the effect or the level left
MDA-MB-231 [19] = assay: Induction of autophagy in human MDA-MB-231 cells assessed as increase in Beclin-1 protein level at 2.5 to 10 uM incubated for 24 hrs by Western blot analysis; type: functional, cell-based; settings: dose 2.5-10 µM
MDA-MB-231 [20] = assay: Induction of apoptosis in human MDA-MB-231 cells assessed as decrease in Bcl2 level at 2.5 to 10 uM incubated for 24 hrs by western blot analysis; type: functional, cell-based; settings: dose 2.5-10 µM
MDA-MB-231 [21] = assay: Induction of apoptosis in human MDA-MB-231 cells assessed as viable cells at 10 uM after 24 hrs by AnnexinV-FITC/PI staining based flow cytometry analysis (reference value: 95.6 to 96.45%); type: functional; settings: read-out: Activity
[22] = target: T1, Serine/threonine-protein kinase mTOR; assay: Inhibition of mTOR (unknown origin)
MDA-MB-231 [23] = assay: Induction of apoptosis in human MDA-MB-231 cells assessed as early apoptotic cells at 10 uM pretreated with autophagy inhibitor, 3-methyladenine for 1 hr followed by incubation with compound and measured after 24 hrs by Annexin V-FITC/propidium iodide staining based flow cytometry (reference value: 3.81%); type: functional; set-up: scale not given: the % may be the effect or the level left
[24] = target: T1, Serine/threonine-protein kinase mTOR; assay: Inhibition of mTOR in human MDA-MB-468 cells assessed as reduction in p70S6K(Thr389) protein level at 0.5 to 2 uM after 24 hrs by Western blot analysis; type: cell-based; settings: dose 0.5-2 µM
MDA-MB-468 [25] = assay: Induction of autophagy in human MDA-MB-468 cells assessed as reduction in p62 protein level at 2.5 to 10 uM incubated for 24 hrs by Western blot analysis; type: functional, cell-based; settings: dose 2.5-10 µM
MDA-MB-468 [26] = assay: Inhibition of colony formation in human MDA-MB-468 cells measured after 14 days by crystal violet staining based assay; type: functional, cell-based; settings: dose 5-10 µM, time 14.0 day
MDA-MB-231 [27] = assay: Induction of apoptosis in human MDA-MB-231 cells assessed as late apoptotic cells at 10 uM pretreated with autophagy inhibitor, 3-methyladenine for 1 hr followed by incubation with compound and measured after 24 hrs by Annexin V-FITC/propidium iodide staining based flow cytometry (reference value: 3.11%); type: functional; set-up: scale not given: the % may be the effect or the level left
MDA-MB-231 [28] = assay: Induction of apoptosis in human MDA-MB-231 cells assessed as viable cells at 10 uM pretreated with autophagy inhibitor, 3-methyladenine for 1 hr followed by incubation with compound and measured after 24 hrs by Annexin V-FITC/propidium iodide staining based flow cytometry (reference value: 92.7%); type: functional; settings: read-out: Activity
MDA-MB-468 [29] = assay: cells; settings: Homo sapiens, MDA-MB-468, 24 h
Description: Antiproliferative activity against human MDA-MB-468 cells assessed as reduction in cell viability incubated for 24 hrs by MTT assay

MDA-MB-468 [30] = assay: Induction of apoptosis in human MDA-MB-468 cells assessed as necrotic cells at 5 uM after 24 hrs by AnnexinV-FITC/PI staining based flow cytometry analysis (reference value: 1.56%); type: functional
MDA-MB-231 [31] = assay: Induction of apoptosis in human MDA-MB-231 cells assessed as early apoptotic cells at 2.5 uM after 24 hrs by AnnexinV-FITC/PI staining based flow cytometry analysis (reference value: 2.63%); type: functional
MDA-MB-231 [32] = assay: Inhibition of colony formation in human MDA-MB-231 cells measured after 14 days by crystal violet staining based assay; type: functional, cell-based; settings: dose 5-10 µM, time 14.0 day

## C/C(=N\NC(=O)c1cccc(Br)c1)c1ccc(C(=O)Nc2nc3ccccc3[nH]2)cc1
MDA-MB-468 [1]
  Activity: 12.3%
MDA-MB-231 [2]
  Activity: 2.96%
[3]
  inhibition: Active
A549
  pIC50: 5.19
MDA-MB-468 [4]
  Activity: Active
MDA-MB-468 [5]
  Activity: 1.24%
MDA-MB-468 [6]
  viability at 10 µM: 81%
MDA-MB-468 [7]
  Activity: Dose-Dependent Effect
[8]
  inhibition: Active
MDA-MB-468 [9]
  Activity: Active
MDA-MB-231 [10]
  Activity: Active
MDA-MB-231 [11]
  Activity: Active
MDA-MB-231 [12]
  inhibition: Active
MDA-MB-231 [13]
  Activity: 0.15%
MDA-MB-468 [14]
  Activity: Active
MDA-MB-231 [15]
  Activity: 12.9%
MDA-MB-468 [16]
  Activity: Active
[17]
  inhibition: Active
MDA-MB-468 [18]
  Activity: 8.98%
MDA-MB-231 [19]
  Activity: Active
MDA-MB-231 [20]
  Activity: Active
MDA-MB-231 [21]
  viability at 10 µM: 70.2%
[22]
  pIC50: 6.52
MDA-MB-231 [23]
  Activity: 6.1%
[24]
  inhibition: Active
MDA-MB-468 [25]
  Activity: Active
MDA-MB-468 [26]
  inhibition: Dose-Dependent Effect
MDA-MB-231 [27]
  Activity: 6.8%
MDA-MB-231 [28]
  viability at 10 µM: 86.3%
MDA-MB-468 [29]
  pIC50: 5.37
MDA-MB-468 [30]
  Activity: 0.87%
MDA-MB-231 [31]
  Activity: 6.84%
MDA-MB-231 [32]
  inhibition: Dose-Dependent Effect
